On the set-up of series [1]: method as in Frost et al. 40. The settings on record: ref Frost et al. 40; cited from earlier work.
Details of series [2]: method as in Frost et al. 40. Conditions: ref Frost et al. 40; cited from earlier work. The source holds these as a separate data set.
On the set-up of series [3]: method as in Frost et al. 40. The settings on record: ref Frost et al. 40; cited from earlier work. The source holds these as a separate data set.
Series [4] concerns the target T1, VBC (VHL, elongin B, elongin C) (Homo sapiens, UniProt P40337).
T1 construct: VHL (54–213), ElonginC (17–112) and; His6 (N, cleaved yes); made in house; host or cells: Escherichia coli BL21(DE3)
Nature of the series: ITC of peptides and ligands against VBC. Format: binding. Conditions: for Kd / ΔG / ΔH / –TΔS: ITC, 25°C; for Kd: mean ± s.e.m.; for fold difference in binding affinity compared to VH032: relative to VH032 Kd.

Series [5] in a line: Parallel artificial membrane permeability assay (PAMPA). Format: in vitro ADME. Conditions: pH 7.4, 10 µM. The procedure: Parallel Artificial Membrane Permeability Assay (PAMPA)
PAMPA was performed using a 96-well pre-coated BD Gentest™ PAMPA plate (BD Biosciences, U.K.). Each well was divided into two chambers; donor and acceptor, separated by a lipid-oil-lipid tri-layer constructed in a porous filter. The effective permeability, Pe, of the compound was measured at pH 7.4. Stock solutions (5 mM) of the compound were prepared in DMSO. The compound was then further diluted to 10 µM in phosphate buffered saline at pH 7.4. The final DMSO concentration did not exceed 5% v/v. The compound dissolved in phosphate buffered saline was then added to the donor side of the membrane and phosphate buffered saline without compound was added to the acceptor side. The PAMPA plate was left at room temperature for 5 h. After which time, an aliquot (100 µl) was then removed from both acceptor and donor compartments and mixed with acetonitrile (80 µl) containing an internal standard. The samples were centrifuged (10 min, 5 °C, 3270 g) to sediment precipitated protein and sealed prior to UPLC-MS/MS analysis using a Quattro Premier XE (Waters Corp, USA). Pe was calculated as shown in the below equation: […]
C D(t)= peak area of compound present in donor well at time t = 18000 s Recovery of compound from donor and acceptor wells was calculated and data was only accepted when recovery exceeded 70%.
(The PAMPA barrier holds no transporters, so it reflects passive diffusion.)

A short description of series [6]: Plasma stability. It counts as in vitro ADME. Conditions: 37 °C, pH 7.4, read-out: plasma stability T1/2. As to the method: (§1) Test compound (10 µM) was incubated in pre-warmed plasma at 37 ᵒC (that is buffered to pH 7.4 in ratio of 70:30 plasma to buffer). Immediately, at time zero, then at 30, 60, 120, and 180 min, a 50 µL aliquot of the incubation mixture was removed and mixed with 200 µL acetonitrile containing Donepezil as the internal standard (50 ng/ml) to stop the reaction. The samples were centrifuged to sediment the precipitated protein and the plates then sealed prior to UPLC-MS/MS analysis using a Quattro Premier XE (Waters Corporation, USA).
(§2) XLfit (IDBS, UK) was used to calculate the exponential decay and consequently the rate constant (k) from the ratio of peak area of test compound to internal standard at each time point. The half-life was calculated for each test compound from the rate by using the following calculation:
(§3) Test compound (0.5 µM) was incubated with female CD1 mouse liver microsomes (Xenotech LLC TM; 0.5 mg/mL in 50mM potassium phosphate buffer, pH 7.4) and the reaction started with addition of excess NADPH (8 mg/mL 50 mM potassium phosphate buffer, pH 7.4). […]
(§4) from the ratio of peak area of test compound to internal standard at each time point. The rate of intrinsic clearance (CLi) of each test compound was then calculated using the following calculation: […]

The nature of series [7]: CHI Log D determination. Format: physicochemical. Conditions: reversed-phase HPLC, Phenomenex Luna C18 column, pH 7.4; read-out: CHI LogD7.4. As to the method:
Using a fast gradient, reverse-phase HPLC method to determine the chromatographic hydrophobicity index (CHI) was determined as described by Camurri and Zaramella (ref. 26) and Valko et al. (ref. 27).
Briefly, by plotting the retention time of a set of reference compounds against known CHI values. The CHI value of test compounds was then calculated according to their retention time.
Test compounds were prepared as 0.5 mM solutions in 50:50 acetonitrile:water and analysed by reversed-phase HPLC-UV (wavelength 254 nm) using a Phenomenex Luna C18 100Å 150 x 4.6mm 5 micron column with a gradient of aqueous phase (50 mM ammonium acetate, pH 7.4) and mobile

A short description of series [8]: Intrinsic clearance in mouse liver microsomes. It counts as in vitro ADME. Conditions: 0.5 µM. As to the method: as §1, §2, §3, §4
(In general: Liver microsomes are vesicles of endoplasmic reticulum, rich in cytochrome P450 enzymes.)

Series [9] has as its system MV4;11 cells. Nature of the series: CellTiter-Glo cell viability assay. Format: cell-based. Conditions: for EC50: MV4-11, 72 h. As to the method:
MV4;11 cells (15000 cells per well) were dosed for 72 h with compounds serially diluted (1:3) on a clear-bottom 384-well plate with a final concentration of 0.05% (v/v) DMSO. After treatment, Promega CellTiter-Glo luminescent cell viability assay (G7572) was added to the cells according to the manufacturer instructions. The signal from each well was recorded on a BM G Labtech Pherastar luminescence plate reader with recommended settings.
Normalized data were analyzed and plotted with Graphpad Prism software in the ‘log(inhibitor) vs. response -- Variable slope (four parameters)’ module. EC50 values of each test compound were […]
For orientation: In ATP-based viability assays light output follows the ATP content of the culture.

In series [10] the test system is A549 cells. Nature of the series: A549 colony-formation assay. It counts as cell-based. Conditions: 7 days, crystal violet. As to the method: A549 Colony-Formation Assay
A549 cells were seeded in clear, Nunc™ Edge 2.0 96 -w ell plates (Thermo Scientific) at 1000 cells per well and incubated at 37°C in DMEM. After 24 h cells were treated with test compounds from 10 µM to 100 nM , with a final DM SO of 0.1%. The cells were left to grow until DM SO -treated wells reached ~100% confluence (~8 days), at which point they were washed with PBS, fixed with 100% MeOH (30 min 4°C), stained with 0.1% crystal violet (30 min at r.t.) and left to dry overnight. Once dried plates were imaged on an Epson Perfection V800 scanner, at a resolution of 1200 DPI and in 48 -bit colour.
For dose-response curves, crystal-violet dye was extracted by the addition of 200 µl 1% SDS to each well, and incubation for 3 h at r.t. The absorbance at 595nm of each well was measured on a Pherastar FS (BMG), normalised for each compound and plotted against compound concentration.
(1 picture or pasted object on this page, not shown here)

SMILES strings stand for the structures. Where two headings read alike, the source gives them in different places. Marks after values point to notes of the source that are not given here. *1 amine or outer side, *2 acyl side, *3 side chain or, on linkers, in order; H or OH if unused. Where a SMILES comes first, the peptide text is derived from it. [ ]: non-standard residue; d: D form. X1 = O=C([C@@H]1[C@@H](F)[C@@H](O)CN1[*:1])[*:2]; X2 = O=C([C@@H]1[C@H](F)[C@@H](O)CN1[*:1])[*:2]

T1 sequence (P40337 54-213): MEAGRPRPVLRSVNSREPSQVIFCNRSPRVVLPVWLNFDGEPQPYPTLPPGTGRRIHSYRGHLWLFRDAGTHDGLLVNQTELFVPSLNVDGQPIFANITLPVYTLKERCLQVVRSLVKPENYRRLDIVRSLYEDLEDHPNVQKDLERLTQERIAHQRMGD
T1 sequence (Q15369 17-112 partner limits assumed): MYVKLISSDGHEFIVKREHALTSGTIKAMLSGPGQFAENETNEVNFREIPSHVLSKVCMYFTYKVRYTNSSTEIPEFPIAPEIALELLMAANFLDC
T1 sequence (Q15370 1-104 partner limits assumed): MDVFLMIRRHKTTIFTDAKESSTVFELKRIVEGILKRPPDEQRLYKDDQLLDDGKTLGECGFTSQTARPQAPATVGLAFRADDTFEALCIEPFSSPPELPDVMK

With `CC(=O)N[C@H](C(=O)N1C[C@H](O)C[C@H]1C(=O)NCc1ccc(-c2scnc2C)cc1)C(C)(C)C` [VH032], the mouse microsomal stability in series [1] was 0.70 ^a mL/min/g liver. In series [2], the “plasma stability T1/2” value is given as >180 ^a min. Further, the “CHI LogD7.4” value in series [3] was 0.90 ^a.
A word on the Kd: it is the equilibrium constant for the complex coming apart. The low end stands for higher affinity, the high end for lower affinity. Turning to `CC[C@H](C)[C@H](NC(=O)[C@H](Cc1ccc(O)cc1)NC(=O)[C@@H]1C[C@@H](O)CN1C(=O)[C@H](C)NC(=O)[C@H](CC(C)C)NC(=O)[C@H](C)NC(=O)[C@H](CCC(=O)O)NC(=O)[C@@H](N)CC(=O)O)C(=O)N1CCC[C@H]1C(=O)N[C@@H](CCSC)C(=O)N[C@@H](CC(=O)O)C(=O)N[C@@H](CC(=O)O)C(=O)N[C@@H](CC(=O)O)C(=O)N[C@@H](Cc1ccccc1)C(=O)N[C@@H](CCC(N)=O)C(=O)N[C@@H](CC(C)C)C(=O)N[C@@H](CCCNC(=N)N)C(=O)N[C@@H](CO)C(=O)N[C@@H](Cc1ccccc1)C(N)=O` [13c, reference compound], in series [4], binding was put at a Kd of 11 ± 1 nM.
Broadly, the Papp is a coefficient for how fast a substance crosses the barrier. Higher therefore signals fast passage. On to `CC(=O)N[C@H](C(=O)N1C[C@H](O)[C@H](F)[C@H]1C(=O)NCc1ccc(-c2scnc2C)cc1)C(C)(C)C` [14a], for which the apparent permeability coefficient (Papp) at 5 h, 10 µM in series [5] came out at 0.23 ×10⁻⁶ cm/s. Besides, in [4], the ΔG result is “–9.02 ± 0.01 kcal/mol”, the ΔH entry is on record as “–7.2 ± 0.5 kcal/mol”, the “–TΔS” value was “–1.8 ± 0.5 kcal/mol” and the “fold difference in binding affinity compared to VH032” value is at most 2 fold. For the same compound, the half-life at 10 µM in series [6] was over 3 h. Also, the chromatographic logD in series [7] was 1.3. For the same compound, the mouse microsomal stability in series [8] is reported as under 0.50 mL/min/g liver.
Turning to `CC(=O)N[C@H](C(=O)N1C[C@H](O)[C@@H](F)[C@H]1C(=O)NCc1ccc(-c2scnc2C)cc1)C(C)(C)C` [14b], the Papp at 5 h, 10 µM in series [5] was found to be 0.081 ×10⁻⁶ cm/s. Further, in series [4], the ΔG result was “–7.55 ± 0.03 kcal/mol”, the ΔH entry was “–3.9 ± 0.5 kcal/mol”, the “–TΔS” value is “–3.8 ± 0.4 kcal/mol” and the Kd was 3080 nM. For the same compound, the “fold difference in binding affinity compared to VH032” value in series [4] is on record as about 20 fold. In series [6], the half-life at 10 µM is over 3 h. The chromatographic logD in series [7] was 1.3. Further, in series [8], the mouse microsomal stability was found to be 0.68 mL/min/g liver.
With `CC[C@H](C)[C@H](NC(=O)[C@H](Cc1ccc(O)cc1)NC(=O)[C@@H]1[C@H](F)[C@@H](O)CN1C(=O)[C@H](C)NC(=O)[C@H](CC(C)C)NC(=O)[C@H](C)NC(=O)[C@H](CCC(=O)O)NC(=O)[C@@H](N)CC(=O)O)C(=O)N1CCC[C@H]1C(=O)N[C@@H](CCSC)C(=O)N[C@@H](CC(=O)O)C(=O)N[C@@H](CC(=O)O)C(=O)N[C@@H](CC(=O)O)C(=O)N[C@@H](Cc1ccccc1)C(=O)N[C@@H](CCC(N)=O)C(=O)N[C@@H](CC(C)C)C(=O)N[C@@H](CCCNC(=N)N)C(=O)N[C@@H](CO)C(=O)N[C@@H](Cc1ccccc1)C(N)=O` [13b] (H-DEALA[X2]YIPMDDDFQLRSF-NH2), in series [4], the Kd came out at 52 ± 3 nM.
As to `Cc1ncsc1-c1ccc(CNC(=O)[C@@H]2C[C@@H](O)CN2C(=O)[C@@H](NC(=O)COCCOCCOCCNC(=O)C[C@@H]2N=C(c3ccc(Cl)cc3)c3c(sc(C)c3C)-n3c(C)nnc32)C(C)(C)C)cc1` [MZ1, reference compound], the “pEC50, antiproliferative activity” value in [9] (72 h) is given as 7.3. Besides, the Emax in series [9] (Homo sapiens, 72 h, read-out: Emax, maximal response at highest concentration) was found to be 98%. The EC50 was 54.7 nM in series [9] (Homo sapiens, read-out: EC50, antiproliferative activity) and 54.7 nM in [9] (Homo sapiens, read-out: pEC50, antiproliferative activity (converted)). The “effect on cell growth, colony formation (in words)” value in series [10] was “profound concentration-dependent cytotoxicity”.
In series [4], `CC[C@H](C)[C@H](NC(=O)[C@H](Cc1ccc(O)cc1)NC(=O)[C@@H]1[C@@H](F)[C@@H](O)CN1C(=O)[C@H](C)NC(=O)[C@H](CC(C)C)NC(=O)[C@H](C)NC(=O)[C@H](CCC(=O)O)NC(=O)[C@@H](N)CC(=O)O)C(=O)N1CCC[C@H]1C(=O)N[C@@H](CCSC)C(=O)N[C@@H](CC(=O)O)C(=O)N[C@@H](CC(=O)O)C(=O)N[C@@H](CC(=O)O)C(=O)N[C@@H](Cc1ccccc1)C(=O)N[C@@H](CCC(N)=O)C(=O)N[C@@H](CC(C)C)C(=O)N[C@@H](CCCNC(=N)N)C(=O)N[C@@H](CO)C(=O)N[C@@H](Cc1ccccc1)C(N)=O` [13a] (H-DEALA[X1]YIPMDDDFQLRSF-NH2) had a Kd of 12 ± 2 nM.

Values taken from article PMC6430500, “3-Fluoro-4-hydroxyprolines: Synthesis, Conformational Analysis, and Stereoselective Recognition by the VHL E3 Ubiquitin Ligase for Targeted Protein Degradation” (Journal of the American Chemical Society, 2018).
